Data published in PubChem BioAssay (NCI).
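Interpolation was linear, between the two tested concentrations surrounding the appropriate level; five concentrations were tested over 48 hours in 96-well plates. GI50: concentration for 50% inhibition of growth. TGI marks complete inhibition of growth.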

Tests used:
Assay in all cases: NCI tumour cell line growth inhibition, 48 h
HOP-92 NSCLC = tested on: HOP-92 NSCLC
CCRF-CEM leukemia = tested on: CCRF-CEM leukemia
OVCAR-5 ovarian = tested on: OVCAR-5 ovarian
NCI-H460 lung = tested on: NCI-H460 lung
OVCAR-3 ovarian = tested on: OVCAR-3 ovarian
SN12C renal = tested on: SN12C renal
M14 melanoma = tested on: M14 melanoma
OVCAR-4 ovarian = tested on: OVCAR-4 ovarian
UACC-62 melanoma = tested on: UACC-62 melanoma
HCC-2998 colon = tested on: HCC-2998 colon
SF-539 CNS = tested on: SF-539 CNS
HT29 colon = tested on: HT29 colon
NCI-H23 lung = tested on: NCI-H23 lung
SW-620 colon = tested on: SW-620 colon
RPMI-8226 leukemia = tested on: RPMI-8226 leukemia
SK-OV-3 ovarian = tested on: SK-OV-3 ovarian
A549 NSCLC = tested on: A549 NSCLC
EKVX NSCLC = tested on: EKVX NSCLC
SNB-75 CNS = tested on: SNB-75 CNS
BT-549 breast = tested on: BT-549 breast
HCT-116 colon = tested on: HCT-116 colon
U251 CNS = tested on: U251 CNS
T-47D breast = tested on: T-47D breast
UO-31 renal = tested on: UO-31 renal
LOX IMVI melanoma = tested on: LOX IMVI melanoma
MALME-3M melanoma = tested on: MALME-3M melanoma
SK-MEL-28 melanoma = tested on: SK-MEL-28 melanoma
HOP-62 NSCLC = tested on: HOP-62 NSCLC
SR leukemia = tested on: SR leukemia
HL-60(TB) leukemia = tested on: HL-60(TB) leukemia
MDA-MB-435 = tested on: MDA-MB-435
NCI-H522 lung = tested on: NCI-H522 lung
MOLT-4 leukemia = tested on: MOLT-4 leukemia
HS 578T breast = tested on: HS 578T breast
K-562 leukemia = tested on: K-562 leukemia
SNB-19 CNS = tested on: SNB-19 CNS
SK-MEL-2 melanoma = tested on: SK-MEL-2 melanoma
IGROV1 ovarian = tested on: IGROV1 ovarian
OVCAR-8 ovarian = tested on: OVCAR-8 ovarian
SF-268 CNS = tested on: SF-268 CNS
ACHN renal = tested on: ACHN renal
SK-MEL-5 melanoma = tested on: SK-MEL-5 melanoma
COLO 205 colon = tested on: COLO 205 colon
HCT-15 colon = tested on: HCT-15 colon
KM12 colon = tested on: KM12 colon
A498 renal = tested on: A498 renal
786-0 renal = tested on: 786-0 renal
RXF 393 renal = tested on: RXF 393 renal
NCI/ADR-RES ovarian = tested on: NCI/ADR-RES ovarian
SF-295 CNS = tested on: SF-295 CNS
DU-145 prostate = tested on: DU-145 prostate
MDA-MB-231 breast = tested on: MDA-MB-231 breast
MCF7 breast = tested on: MCF7 breast
UACC-257 melanoma = tested on: UACC-257 melanoma
PC-3 prostate = tested on: PC-3 prostate
TK-10 renal = tested on: TK-10 renal
NCI-H226 lung = tested on: NCI-H226 lung
CAKI-1 renal = tested on: CAKI-1 renal

Compound: COc1cc2nc(N3CCCN(C)CC3)nc(NC3CCN(Cc4ccccc4)CC3)c2cc1OC
- GI50 (HOP-92 NSCLC): 4.12 µM
- TGI (HOP-92 NSCLC): 13.6 µM
- GI50 (CCRF-CEM leukemia): 2.37 µM
- TGI (CCRF-CEM leukemia): > 24.6 µM
- GI50 (OVCAR-5 ovarian): 4.47 µM
- TGI (OVCAR-5 ovarian): 15.1 µM
- GI50 (NCI-H460 lung): 2.19 µM
- TGI (NCI-H460 lung): 4.81 µM
- GI50 (OVCAR-3 ovarian): 3.17 µM
- TGI (OVCAR-3 ovarian): 9.41 µM
- GI50 (SN12C renal): 6.68 µM
- TGI (SN12C renal): 25 µM
- GI50 (M14 melanoma): 1.76 µM
- TGI (M14 melanoma): 3.22 µM
- GI50 (OVCAR-4 ovarian): 1.81 µM
- TGI (OVCAR-4 ovarian): 4.79 µM
- GI50 (UACC-62 melanoma): 1.89 µM
- TGI (UACC-62 melanoma): 3.56 µM
- GI50 (HCC-2998 colon): 2.71 µM
- TGI (HCC-2998 colon): 8.76 µM
- GI50 (SF-539 CNS): 1.68 µM
- TGI (SF-539 CNS): 3.33 µM
- GI50 (HT29 colon): 1.33 µM
- TGI (HT29 colon): 5.26 µM
- GI50 (NCI-H23 lung): 5.71 µM
- TGI (NCI-H23 lung): 19.7 µM
- GI50 (SW-620 colon): 2.96 µM
- TGI (SW-620 colon): 9.64 µM
- GI50 (RPMI-8226 leukemia): 2.31 µM
- TGI (RPMI-8226 leukemia): 6.18 µM
- GI50 (SK-OV-3 ovarian): 3.19 µM
- TGI (SK-OV-3 ovarian): 10.8 µM
- GI50 (A549 NSCLC): 2.94 µM
- TGI (A549 NSCLC): 10.2 µM
- GI50 (EKVX NSCLC): 3.83 µM
- TGI (EKVX NSCLC): 13.9 µM
- GI50 (SNB-75 CNS): 1.4 µM
- TGI (SNB-75 CNS): 4.55 µM
- GI50 (BT-549 breast): 1.94 µM
- TGI (BT-549 breast): 4.68 µM
- GI50 (HCT-116 colon): 2.24 µM
- TGI (HCT-116 colon): 6.19 µM
- GI50 (U251 CNS): 2.22 µM
- TGI (U251 CNS): 5.96 µM
- GI50 (T-47D breast): 2.53 µM
- TGI (T-47D breast): 6.25 µM
- GI50 (UO-31 renal): 1.69 µM
- TGI (UO-31 renal): 3.2 µM
- GI50 (LOX IMVI melanoma): 1.68 µM
- TGI (LOX IMVI melanoma): 3.28 µM
- GI50 (MALME-3M melanoma): 1.87 µM
- TGI (MALME-3M melanoma): 3.37 µM
- GI50 (SK-MEL-28 melanoma): 1.88 µM
- TGI (SK-MEL-28 melanoma): 3.77 µM
- GI50 (HOP-62 NSCLC): 3.23 µM
- TGI (HOP-62 NSCLC): 10.6 µM
- GI50 (SR leukemia): 2.23 µM
- TGI (SR leukemia): 6.66 µM
- GI50 (HL-60(TB) leukemia): 1.83 µM
- TGI (HL-60(TB) leukemia): 4.3 µM
- GI50 (MDA-MB-435): 1.74 µM
- TGI (MDA-MB-435): 3.22 µM
- GI50 (NCI-H522 lung): 2.02 µM
- TGI (NCI-H522 lung): 4.22 µM
- GI50 (MOLT-4 leukemia): 1.8 µM
- TGI (MOLT-4 leukemia): 6.25 µM
- GI50 (HS 578T breast): 2.04 µM
- TGI (HS 578T breast): 5.59 µM
- GI50 (K-562 leukemia): 1.47 µM
- TGI (K-562 leukemia): 4.56 µM
- GI50 (SNB-19 CNS): 4.28 µM
- TGI (SNB-19 CNS): 18.1 µM
- GI50 (SK-MEL-2 melanoma): 2.08 µM
- TGI (SK-MEL-2 melanoma): 4.25 µM
- GI50 (IGROV1 ovarian): 7.33 µM
- TGI (IGROV1 ovarian): 25.3 µM
- GI50 (OVCAR-8 ovarian): 3.26 µM
- TGI (OVCAR-8 ovarian): 11.8 µM
- GI50 (SF-268 CNS): 2.72 µM
- TGI (SF-268 CNS): 8.65 µM
- GI50 (ACHN renal): 2.25 µM
- TGI (ACHN renal): 5.13 µM
- GI50 (SK-MEL-5 melanoma): 1.73 µM
- TGI (SK-MEL-5 melanoma): 3.14 µM
- GI50 (COLO 205 colon): 1.84 µM
- TGI (COLO 205 colon): 3.51 µM
- GI50 (HCT-15 colon): 1.83 µM
- TGI (HCT-15 colon): 4.41 µM
- GI50 (KM12 colon): 3.07 µM
- TGI (KM12 colon): 9.82 µM
- GI50 (A498 renal): 0.904 µM
- TGI (A498 renal): 7.66 µM
- GI50 (786-0 renal): 1.84 µM
- TGI (786-0 renal): 5.2 µM
- GI50 (RXF 393 renal): 1.33 µM
- TGI (RXF 393 renal): 3.12 µM
- GI50 (NCI/ADR-RES ovarian): 13.4 µM
- TGI (NCI/ADR-RES ovarian): 34.8 µM
- GI50 (SF-295 CNS): 1.81 µM
- TGI (SF-295 CNS): 3.46 µM
- GI50 (DU-145 prostate): 2.86 µM
- TGI (DU-145 prostate): 9.38 µM
- GI50 (MDA-MB-231 breast): 1.68 µM
- TGI (MDA-MB-231 breast): 4.75 µM
- GI50 (MCF7 breast): 2.08 µM
- TGI (MCF7 breast): 7.65 µM
- GI50 (UACC-257 melanoma): 1.74 µM
- TGI (UACC-257 melanoma): 3.36 µM
- GI50 (PC-3 prostate): 4.4 µM
- TGI (PC-3 prostate): 20.1 µM
- GI50 (TK-10 renal): 1.88 µM
- TGI (TK-10 renal): 4.02 µM
- GI50 (NCI-H226 lung): 2.68 µM
- TGI (NCI-H226 lung): 9.08 µM
- GI50 (CAKI-1 renal): 1.63 µM
- TGI (CAKI-1 renal): 3.71 µM
